Laboratory results published in PubChem BioAssay AID2060363 (Molecular Pharmacology Branch, DTP, NCI, 2025).
Values joined by “and” are separate entries in the source; they are usually repeats but may differ in a detail not shown here. Equal values may be shown once.

Test system: 156681-154-R-J1-PDC tumor spheroids, viability % test/control
Assay: Anticancer human tumor 156681-154-R-J1-PDC patient-derived melanoma cell line growth inhibition [TAK]
Conditions: spheroids with HUVEC and MSC; for viability, T/C: stronger effect = lower value; active means viability on the fitted dose curve at most 10% of control; inactive means the rest
Excerpt: Combinatorial screen of targeted agents with TAK-243 and ipatasertib in multi-cell type tumor spheroids
A high-throughput screen of multi-cell type tumor spheroids was designed to identify active combinations of targeted small molecules and TAK-243 or ipatasertib. Complex spheroids include a stromal component modeled by human endothelial cells (HUVEC) and fibroblasts modeled by human mesenchymal stem cells (MSCs). The concentration ranges selected for each drug and investigational agent were based upon clinically achievable concentrations if the clinical Cmax of the agent was known.
Compounds. The drugs and investigational agents: TAK-243 (785004), ipatasertib (767898), everolimus (733504), selumetinib (741078), bortezomib (756655), trametinib (758246), ixazomib (758254), vemurafenib (761431), dabrafenib (764134), sapanisertib (764658), alpelisib (765974), and copanlisib (816437), were obtained from the National Cancer Institute (NCI) Developmental Therapeutics Program Chemical Repository. The FDA-approved anticancer drug set is available from the NCI Developmental Therapeutics Program. […] The stock solutions were prepared in dimethyl sulfoxide (DMSO, Sigma-Aldrich, St. Louis, MO, cat. D2650) at 800-fold the tested concentration and stored at -70 degrees C prior to their use. All drugs and investigational agents were tested over a range starting from a high concentration at or near the clinical Cmax and decreasing in half-log increments. If the clinical Cmax for an agent had not been determined, the highest concentration tested was 10 microM.
NCI60 Cell Culture. NCI60 cell lines were obtained from the NCI Developmental Therapeutics Program Tumor Repository. For each lot of cells, the Repository performed Applied Biosystems AmpFLSTR Identifiler testing with PCR amplification to confirm consistency with the published Identifier STR profile for each cell line. Cells were kept in continuous culture for no more than 20 passages. The optimal seeding densities for each of the cell lines at each time point assessed were determined prior to performing the concentration response studies. Briefly, the NCI60 human tumor lines were grown as monolayers in RPMI 1640 medium supplemented with 10% FBS and 2 mmol/L L-glutamine.
An additional 2 lines were from the NCI60 cell line panel including melanomas, MALME-3M and SK-MEL-2. Pooled donor human umbilical vein endothelial cells (HUVEC, Lonza, cat. CC-2519) and human mesenchymal stem cells (hMSC, Lonza, cat. PT-2501) were purchased from Lonza (Walkersville, MD).
PDMR cell lines were grown in complete medium (DC medium): Dulbecco's modified Eagle's medium (DMEM)/F12 supplemented with 5% fetal bovine serum (FBS), 2 mM L-glutamine, 100 U/mL penicillin and 100 µg/ml streptomycin, 0.4 µg/ml hydrocortisone, 10 ng/ml epidermal growth factor (EGF) recombinant human protein, 24 µg/mL adenine, and 0.1 mg/mL primocin. During culture from frozen stock vials, PDMR cells were cultured in the same medium containing 10 µM Y-27632 (see Table 3). The PDCs were cultured in complete DMEM/F12 media without 10 microM Y-27632 dihydrochloride for at least two passages prior to the screen. The pooled donor HUVEC and hMSC were cultured in endothelial cell growth medium 2 (PromoCell, Heidelberg, Germany, cat. C-22011) and mesenchymal stem cell growth medium 2 (PromoCell, cat. C-28009), respectively. For all experiments, HUVEC and hMSC were used at passages </=5.
For the pre-screen, cell seeding densities were determined from a titration spanning the range from 5,000 to 313 cells per well. The mct-spheroids including 60% malignant cells, 25% HUVEC and 15% MSC dispensed as a mixture into U-bottom Ultra-Low Attachment 384-well plates (Corning, NY)
High-throughput Drug Combination Screening.
Prior to their inoculation into 384-well plates, malignant cells, HUVEC, and hMSC were removed from T flasks using TrypLE express (Thermo Fisher Scientific, cat. 12605036) and harvested by centrifugation for 5 min at 233 x g. […]
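Further: spheroids exposed to compounds for 7 days before the endpoint.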

Cn1cnc2c(F)c(Nc3ccc(Br)cc3Cl)c(C(=O)NOCCO)cc21
inactive: viability, T/C (compound 0.00949 µM) 95.4% and 99.5% | viability, T/C (compound 0.03 µM) 92.4% and 89.7% | viability, T/C (compound 0.0949 µM) 97.8% and 89.7% | viability, T/C (compound 0.3 µM) 93.4% and 95.4% | viability, T/C (compound 0.949 µM) 41.3% and 32.8% | viability, T/C (compound 3 µM) 13% and 12.3%
0.782 µM and 0.685 µM: IC50 (curve of compound)

COC1CC2CCC(C)C(O)(O2)C(=O)C(=O)N2CCCCC2C(=O)OC(C(C)CC2CCC(OCCO)C(OC)C2)CC(=O)C(C)C=C(C)C(O)C(OC)C(=O)C(C)CC(C)C=CC=CC=C1C (centres undefined)
0.0929 µM and > 0.1 µM: IC50 (curve of compound)
inactive: viability, T/C (compound 0.000316 µM) 98.5% and 87% | viability, T/C (compound 0.001 µM) 81.8% and 87.3% | viability, T/C (compound 0.00316 µM) 70% and 71.2% | viability, T/C (compound 0.01 µM) 59.4% and 64.1% | viability, T/C (compound 0.0316 µM) 62.3% and 59.9% | viability, T/C (compound 0.1 µM) 46% and 51.8%

COc1c(OCCCN2CCOCC2)ccc2c3n(c(=NC(=O)c4cnc(N)nc4)nc12)CCN3 + CC(C)NCC(C(=O)N1CCN(c2ncnc3c2C(C)CC3O)CC1)c1ccc(Cl)cc1
< 0.00316 µM: IC50 (curve of first compound, second compound 9.49 µM) | IC50 (curve of first compound, second compound 30 µM)
inactive: viability, T/C (second compound 0.3 µM, first compound 0.00316 µM) 94.6% | viability, T/C (second compound 0.3 µM, first compound 0.01 µM) 91.4% | viability, T/C (second compound 0.3 µM, first compound 0.0316 µM) 70.6% | viability, T/C (second compound 0.3 µM, first compound 0.1 µM) 38.3% | viability, T/C (second compound 0.3 µM, first compound 0.316 µM) 11.3% | viability, T/C (second compound 0.949 µM, first compound 0.00316 µM) 86.7% | viability, T/C (second compound 0.949 µM, first compound 0.01 µM) 85.1% | viability, T/C (second compound 0.949 µM, first compound 0.0316 µM) 61% | viability, T/C (second compound 0.949 µM, first compound 0.1 µM) 33.3% | viability, T/C (second compound 3 µM, first compound 0.00316 µM) 67.4% | viability, T/C (second compound 3 µM, first compound 0.01 µM) 56.6% | viability, T/C (second compound 3 µM, first compound 0.0316 µM) 40.7% | viability, T/C (second compound 3 µM, first compound 0.1 µM) 21.7% | viability, T/C (second compound 9.49 µM, first compound 0.00316 µM) 30.9% | viability, T/C (second compound 9.49 µM, first compound 0.01 µM) 35.9% | viability, T/C (second compound 9.49 µM, first compound 0.0316 µM) 18.5% | viability, T/C (second compound 9.49 µM, first compound 0.1 µM) 9.13% | viability, T/C (second compound 30 µM, first compound 0.00316 µM) 13.6% | viability, T/C (second compound 30 µM, first compound 0.01 µM) 11.5%
active: viability, T/C (second compound 0.3 µM, first compound 1 µM) 2.36% | viability, T/C (second compound 0.949 µM, first compound 0.316 µM) 6.84% | viability, T/C (second compound 0.949 µM, first compound 1 µM) 1.52% | viability, T/C (second compound 3 µM, first compound 0.316 µM) 3.81% | viability, T/C (second compound 3 µM, first compound 1 µM) 1.29% | viability, T/C (second compound 9.49 µM, first compound 0.316 µM) 2.36% | viability, T/C (second compound 9.49 µM, first compound 1 µM) 1.24% | viability, T/C (second compound 30 µM, first compound 0.0316 µM) 6.36% | viability, T/C (second compound 30 µM, first compound 0.1 µM) 3.28% | viability, T/C (second compound 30 µM, first compound 0.316 µM) 0.7% | viability, T/C (second compound 30 µM, first compound 1 µM) 0.29%
0.0658 µM: IC50 (curve of first compound, second compound 0.3 µM)
0.0168 µM: IC50 (curve of first compound, second compound 3 µM)
0.0512 µM: IC50 (curve of first compound, second compound 0.949 µM)

CC(C)n1nc(-c2ccc3oc(N)nc3c2)c2c(N)ncnc21
inactive: viability, T/C (compound 0.000316 µM) 97.2% and 94.8% | viability, T/C (compound 0.001 µM) 95.3% and 91.7% | viability, T/C (compound 0.00316 µM) 81.4% and 96.3% | viability, T/C (compound 0.01 µM) 80.2% and 86.3% | viability, T/C (compound 0.0316 µM) 48% and 56.1% | viability, T/C (compound 0.1 µM) 33.3% and 34.1%
0.0339 µM and 0.0433 µM: IC50 (curve of compound)

CC(C)NCC(C(=O)N1CCN(c2ncnc3c2C(C)CC3O)CC1)c1ccc(Cl)cc1 (centres undefined)
6.66 µM [middle of 10 runs]: IC50 (compound alone, run of 02/20/2020)
inactive: viability, T/C (compound 0.3 µM) 99.2% [middle of 10 runs] | viability, T/C (compound 0.949 µM) 91.1% [middle of 10 runs] | viability, T/C (compound 3 µM) 70.3% [middle of 10 runs] | viability, T/C (compound 9.49 µM) 41.4% [middle of 10 runs] | viability, T/C (compound 30 µM) 19.1% [middle of 10 runs]

CC(=O)Nc1cccc(-n2c(=O)n(C3CC3)c(=O)c3c(Nc4ccc(I)cc4F)n(C)c(=O)c(C)c32)c1
inactive: viability, T/C (compound 94.9 pM) 102% and 101% | viability, T/C (compound 0.0003 µM) 105% and 111% | viability, T/C (compound 0.000949 µM) 100% and 102% | viability, T/C (compound 0.003 µM) 83.8% and 66.8% | viability, T/C (compound 0.00949 µM) 15.5% and 14.8%
0.0053 µM and 0.00435 µM: IC50 (curve of compound)
active: viability, T/C (compound 0.03 µM) 8.87% and 8.9%
